Test results published in patent US9446044B2, “DYRK1 inhibitors and uses thereof” (DIAXONHIT, priority 2011, dated 2016).
Like-named read-outs stand apart in the source and are kept apart here.

Experiments:
DYRK1B = DYRK1B (Homo sapiens (Human), UniProt Q9Y463); assay: DYRK1B kinase assay (HotSpot, Reaction Biology); assay type: biochemical
DYRK1A = DYRK1A (Homo sapiens (Human), UniProt Q13627); assay: DYRK1A kinase assay (HotSpot, Reaction Biology); assay type: biochemical; settings: purified recombinant kinase, 10 μM ATP, room temperature 120 min
[1] = purified recombinant kinase, 10 μM ATP, room temperature 120 min

DYRK1B, sequence (Q9Y463 whole entry): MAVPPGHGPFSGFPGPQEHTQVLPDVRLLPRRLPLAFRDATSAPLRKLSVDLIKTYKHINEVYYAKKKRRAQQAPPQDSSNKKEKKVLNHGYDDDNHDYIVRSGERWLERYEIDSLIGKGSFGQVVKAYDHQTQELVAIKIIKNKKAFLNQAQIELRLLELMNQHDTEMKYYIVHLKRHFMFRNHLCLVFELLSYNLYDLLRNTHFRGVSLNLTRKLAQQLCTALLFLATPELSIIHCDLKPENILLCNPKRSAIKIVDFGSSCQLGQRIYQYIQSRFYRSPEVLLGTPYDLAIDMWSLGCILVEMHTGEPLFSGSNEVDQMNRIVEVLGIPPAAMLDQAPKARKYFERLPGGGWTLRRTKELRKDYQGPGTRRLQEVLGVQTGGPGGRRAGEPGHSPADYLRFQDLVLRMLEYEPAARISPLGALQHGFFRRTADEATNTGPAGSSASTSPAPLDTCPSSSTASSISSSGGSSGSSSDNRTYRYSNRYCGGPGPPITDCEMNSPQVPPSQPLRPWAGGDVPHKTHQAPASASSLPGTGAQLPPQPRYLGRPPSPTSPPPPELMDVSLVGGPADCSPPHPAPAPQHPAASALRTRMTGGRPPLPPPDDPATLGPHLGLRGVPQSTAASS

| SMILES | IC50 (DYRK1B; [1]) [nM] | IC50 (DYRK1A) [nM] | IC50 (DYRK1B) [nM] |
| --- | --- | --- | --- |
| COC(=N)c1nc2ccc3ncnc(Nc4ccc(OC)cc4OC)c3c2s1 [Compound 62, Methyl 9-(2,4-dimethoxyphenylamino)thiazolo[5,4-f]quinazoline-2-carbimidate] | 11.1 | 9.53 | – |
| CCOC(=N)c1nc2ccc3ncnc(Nc4ccc(Br)cc4F)c3c2s1 [Compound 81, Ethyl 9-(4-bromo-2-fluorophenylamino)thiazolo[5,4-f]quinazoline-2-carbimidate] | 34.4 | 33.2 | – |
| COC(=N)c1nc2ccc3ncnc(Nc4ccc(Br)cc4F)c3c2s1 [Compound 44, Methyl 9-(4-bromo-2-fluorophenylamino)thiazolo[5,4-f]quinazoline-2-carbimidate] | – | 3.6 | 6.55 |
| CCN(CC)CCNC(=N)c1nc2ccc3ncnc(Nc4ccc5c(c4)OCO5)c3c2s1 [Compound 34, 9-(Benzo[d][1,3]dioxol-5-ylamino)-N-(2-(diethylamino)ethyl)thiazolo[5,4-f]quinazoline-2-carboximidamide] | – | 1000 to 10000 | – |
| COC(=N)c1nc2ccc3ncnc(Nc4ccc(Cl)cc4)c3c2s1 [Compound 56, Methyl 9-(4-chlorophenylamino)thiazolo[5,4-f]quinazoline-2-carbimidate] | 4.74 | 1.13 | – |
| COC(=N)c1nc2ccc3ncnc(Nc4cc(OC)c(OC)c(OC)c4)c3c2s1 [Compound 61, Methyl 9-(3,4,5-trimethoxyphenylamino)thiazolo[5,4-f]quinazoline-2-carbimidate] | 486 | 436 | – |
| COC(=N)c1nc2ccc3ncnc(Nc4ccc5c(c4)OCO5)c3c2s1 [Compound 48, Methyl 9-(benzo[d][1,3]dioxol-5-ylamino)thiazolo[5,4-f]quinazoline-2-carbimidate] | 4.2 | – | – |
| COC(=N)c1nc2ccc3ncnc(Nc4ccc(O)c(F)c4)c3c2s1 [Compound 79, Methyl 9-(3-fluoro-4-hydroxyphenylamino)thiazolo[5,4-f]quinazoline-2-carbimidate] | 11 | 8.63 | – |
| CC(C)OC(=N)c1nc2ccc3ncnc(Nc4ccc5c(c4)OCO5)c3c2s1 [Compound 85, isopropyl 9-(benzo[d][1,3]dioxol-5-ylamino)thiazolo[5,4-f]quinazoline-2-carbimidate] | – | 125 | 218 |
| CN(C)C(=N)c1nc2ccc3ncnc(Nc4ccc(Br)cc4F)c3c2s1 [Compound 14] | – | 147 | – |
| NC(=O)c1nc2ccc3ncnc(Nc4ccc(Cl)cc4Cl)c3c2s1 [Compound 87, 9-((2,4-dichlorophenyl)amino)thiazolo[5,4-f]quinazoline-2-carboxamide] | 43.4 | 34.9 | – |
| CN(C)CCNC(=N)c1nc2ccc3ncnc(Nc4ccc5c(c4)OCO5)c3c2s1 [Compound 33, 9-(Benzo[d][1,3]dioxol-5-ylamino)-N-(2-(dimethylamino)ethyl)thiazolo[5,4-f]quinazoline-2-carboximidamide] | – | 431 | – |
| N=C(NCc1ccncc1)c1nc2ccc3ncnc(Nc4ccc(Br)cc4F)c3c2s1 [Compound 19, 9-(4-Bromo-2-fluorophenylamino)-N-(pyridin-4-ylmethyl)thiazolo[5,4-f]quinazoline-2-carboximidamide] | – | 1000 to 10000 | – |
| COC(=N)c1nc2ccc3ncnc(Nc4ccc(N(C)C)cc4)c3c2s1 [Compound 76, Methyl 9-(4-(dimethylamino)phenylamino)thiazolo[5,4-f]quinazoline-2-carbimidate] | 64.3 | 35.6 | – |
| N=C(NCCN1CCCCC1)c1nc2ccc3ncnc(Nc4ccc5c(c4)OCO5)c3c2s1 [Compound 30, 9-(Benzo[d][1,3]dioxol-5-ylamino)-N-(2-(piperidin-1-yl)ethyl)thiazolo[5,4-f]quinazoline-2-carboximidamide] | – | 1000 to 10000 | – |
| COC(=N)c1nc2ccc3ncnc(Nc4cccc(C#N)c4)c3c2s1 [Compound 67, Methyl 9-(3-cyanophenylamino)thiazolo[5,4-f]quinazoline-2-carbimidate] | 72 | 42.7 | – |
| C#Cc1cccc(Nc2ncnc3ccc4nc(C(=N)OC)sc4c23)c1 [Compound 58, Methyl 9-(3-ethynylphenylamino)thiazolo[5,4-f]quinazoline-2-carbimidate] | 46.3 | 40.8 | – |
| COC(=N)c1nc2ccc3ncnc(Nc4ccc(C(F)(F)F)cc4)c3c2s1 [Compound 80, Methyl 9-(4-(trifluoromethyl)phenylamino)thiazolo[5,4-f]quinazoline-2-carbimidate] | 25.2 | 18.3 | – |
| COC(=N)c1nc2ccc3ncnc(Nc4ccc5c(c4)OCCO5)c3c2s1 [Compound 49, Methyl 9-(2,3-dihydrobenzo[b][1,4]dioxin-6-ylamino)thiazolo[5,4-f]quinazoline-2-carbimidate] | – | 8 | – |
| COC(=N)c1nc2ccc3ncnc(Nc4ccc(F)cc4Br)c3c2s1 [Compound 68, Methyl 9-(2-bromo-4-fluorophenylamino)thiazolo[5,4-f]quinazoline-2-carbimidate] | 0.24 | 0.16 | – |

| SMILES | IC50 (DYRK1B; [1]) [nM] | IC50 (DYRK1A) [nM] | IC50 (DYRK1B) [nM] |
| --- | --- | --- | --- |
| N=C(OCc1ccccc1)c1nc2ccc3ncnc(Nc4ccc5c(c4)OCO5)c3c2s1 [Compound 83, benzyl 9-(benzo[d][1,3]dioxol-5-ylamino)thiazolo[5,4-f]quinazoline-2-carbimidate] | 37.3 | 33.9 | – |
| COC(=N)c1nc2ccc3ncnc(Nc4ccc(OC)c(OC)c4)c3c2s1 [Compound 51, Methyl 9-(3,4-dimethoxyphenylamino)thiazolo[5,4-f]quinazoline-2-carbimidate] | 161 | – | – |
| COC(=N)c1nc2ccc3ncnc(Nc4cc(OC)cc(OC)c4)c3c2s1 [Compound 63, Methyl 9-(3,5-dimethoxyphenylamino)thiazolo[5,4-f]quinazoline-2-carbimidate] | – | 299 | – |
| CCCCOC(=N)c1nc2ccc3ncnc(Nc4ccc(Cl)cc4Cl)c3c2s1 [Compound 88, butyl 9-((2,4-dichlorophenyl)amino)thiazolo[5,4-f]quinazoline-2-carbimidate] | 69.4 | 47.5 | – |
| COC(=O)c1nc2ccc3ncnc(Nc4ccc(Cl)cc4Cl)c3c2s1 [Compound 89, methyl 9-((2,4-dichlorophenyl)amino)thiazolo[5,4-f]quinazoline-2-carboxylate] | 7.7 | 5.1 | – |
| COC(=N)c1nc2ccc3ncnc(Nc4cccc(Cl)c4)c3c2s1 [Compound 75, Methyl 9-(3-chlorophenylamino)thiazolo[5,4-f]quinazoline-2-carbimidate] | 18.8 | 13.6 | – |
| COC(=N)c1nc2ccc3ncnc(Nc4ccc(OC)c([N+](=O)[O-])c4)c3c2s1 [Compound 73, Methyl 9-(4-methoxy-3-nitrophenylamino)thiazolo[5,4-f]quinazoline-2-carbimidate] | – | 124 | – |
| COC(=N)c1nc2ccc3ncnc(Nc4ccccc4)c3c2s1 [Compound 64, Methyl 9-(phenylamino)thiazolo[5,4-f]quinazoline-2-carbimidate] | 3.48 | 1.81 | – |
| NC(=O)c1nc2ccc3ncnc(Nc4ccc(F)cc4Br)c3c2s1 [Compound 86, 9-((2-bromo-4-fluorophenyl)amino)thiazolo[5,4-f]quinazoline-2-carboxamide] | 31.5 | 26.2 | – |
| COC(=N)c1nc2ccc3ncnc(Nc4ccc(C(C)(C)C)cc4)c3c2s1 [Compound 74, Methyl 9-(4-tert-butylphenylamino)thiazolo[5,4-f]quinazoline-2-carbimidate] | 93.8 | 39 | – |
| CN(C)C(=N)c1nc2ccc3ncnc(Nc4ccc(F)c(Cl)c4)c3c2s1 [Compound 7, 9-(3-Chloro-4-fluorophenylamino)-N,N-dimethylthiazolo[5,4-f]quinazoline-2-carboximidamide] | – | 1000 to 10000 | – |
| NC(=O)c1nc2ccc3ncnc(Nc4ccc(Br)cc4F)c3c2s1 [Compound 36, 9-(4-Bromo-2-fluorophenylamino)thiazolo[5,4-f]quinazoline-2-carboxamide] | – | 194 | – |
| CCOC(=N)c1nc2ccc3ncnc(Nc4ccc5c(c4)OCO5)c3c2s1 [Compound 82, Ethyl 9-(benzo[d][1,3]dioxol-5-ylamino)thiazolo[5,4-j]quinazoline-2-carbimidate] | 7.72 | 6.02 | – |
| COc1ccc(Nc2ncnc3ccc4nc(C5=NCCO5)sc4c23)cc1 [Compound 42, 2-(4,5-dihydrooxazol-2-yl)-N-(4-methoxyphenyl)thiazolo[5,4-f]quinazolin-9-amine] | 18700 | – | – |
| COC(=N)c1nc2ccc3ncnc(Nc4ccc(Cl)c(Cl)c4)c3c2s1 [Compound 57, Methyl 9-(3,4-dichlorophenylamino)thiazolo[5,4-f]quinazoline-2-carbimidate] | – | 66.8 | – |
| N=C(NCCN1CCOCC1)c1nc2ccc3ncnc(Nc4ccc5c(c4)OCO5)c3c2s1 [Compound 29, 9-(Benzo[d][1,3]dioxol-5-ylamino)-N-(2-morpholinoethyl)thiazolo[5,4-f]quinazoline-2-carboximidamide] | – | 1000 to 10000 | – |
| N=C(NCc1ccc(F)cc1)c1nc2ccc3ncnc(Nc4ccc(Br)cc4F)c3c2s1 [Compound 16, 9-(4-Bromo-2-fluorophenylamino)-N-(4-fluorobenzyl)thiazolo[5,4-f]quinazoline-2-carboximidamide] | – | 1000 to 10000 | – |
